According to patent publication US6703370B1, “Use of ribose to treat fibromyalgia” (Bioenergy, Inc., priority 1999, dated 2004):

Experiments:
Type in all cases: in vivo, human
fibromyalgia patient = experiment: Alleviation of symptoms in a fibromyalgia patient (single case, oral ribose)
Excerpt: A patient diagnosed with fibromyalgia had been experiencing extreme muscle pain and fatigue as well as irritable bowel syndrome, disturbed sleep, and cognitive dysfunction. They had been told by their physician that they were in the worst stage of the condition and could end up in a wheel chair within a year. They began taking ribose, one teaspoonful (about 5 grams), 4 times per day. […] They continued taking it for a week then decided to observe the effects of stopping the doses of ribose, so they discontinued the protocol for one week. […] They stated that “It is without a doubt the best product I have ever been on.”

[1] = tested on: patients with fibromyalgia (FM); experiment: Planned double-blind crossover study of oral ribose in fibromyalgia; details: 16 patients planned, 20 gm per day (10 gm bid), 4 weeks, crossover against dextrose placebo
Excerpt: Following the informal studies in five subjects, a protocol was written to determine whether oral ribose administration in patients with fibromyalgia (FM) can reduce symptoms of fatigue and pain and improve the subjects' quality of life. The study endpoints will be: (1) the patient's visual analog (PVA) scale for pain, (2) the patient's analog scale for fatigue, (3) the physician's global assessment (GAphs), (4) the patient's global assessment (GAPT), (5) the Western Ontario MacMaster Questionaire (WOMAC) index, (6) SF-36 quality of life form, (7) the patient's's daily activity/events log and (8) the number of days to study discontinuation, if the patient chooses to do so, based upon his/her improved condition. The study will include 16 patients with a confirmed diagnosis of FM using a double-blind crossover design. All patients who meet entrance or screening criteria will be randomly assigned to either treatment #1 (oral dextrose as a placebo) or treatment #2 (oral ribose) at a dose of 20 gm per day (10 gm bid), as a first treatment modality. Both physician and patient will be blinded to the treatment modality. Informed consent will be obtained prior to enrolment. […] All endpoint parameters will be assessed at baseline prior to treatment, after 4 weeks of treatment one, at the end of the workout period, and again following 4 weeks of treatment 2 (“crossover” treatment modality). […]

fibromyalgia patients = experiment: Applicants' general finding on steady ingestion of ribose; details: steady ingestion two to four times per day over the course of a week
Excerpt: Continued ingestion leads to greater improvement, in turn allowing the patient to endure the much needed regular exercise to further relieve the painful symptoms.

fibromyalgia subjects = experiment: Pilot study on the effect of ribose in alleviating the symptoms of fibromyalgia (SF-36 health status profile and subject reports)
Excerpt: Four women subjects ranging in age from 45 to 55 were given ribose and instructed to take at least 20 grams per day, preferably divided in four doses. The recommended mode of administration was one heaping teaspoon, about five to seven grams, mixed in six to eight ounces of water, taken preferably with meals and before planned activity. Subjects were encouraged to vary the dosage according to their perceived needs. Each subject was given a health status profile (SF-36) to complete. The profile was to be filled out both before and after four weeks of ribose administration. Two of the subjects complied with filling out the profile.
Health Status Profile (SF-36):
1) General health compared to one year ago: 1=much better, 2=somewhat better, 3=about the same, 4=somewhat worse, 5=much worse
2) Energy, 2 questions, from peppy all of the time to none of the time.
3) Activities, 12 examples from vigorous to mild, scored as: limited a lot, limited a little, not limited
4) Pain: 1=none, 2=very mild, 3=mild, 4=moderate, 5=severe, 6 =very severe The results of each subject's before and after ratings are summarized in Table I.

[2] = after resuming, one teaspoonful 4 times per day, after 4 weeks

SMILES: O=C[C@H](O)[C@H](O)[C@H](O)CO [ribose, D-ribose]
- Irritable painful bowel syndrome (fibromyalgia patient; [2]): improved their irritable painful bowel syndrome
- Pain, fatigue and morning stiffness (fibromyalgia patient; [2]): alleviated their pain, fatigue and morning stiffness
- Energy and flare ups of muscle soreness (fibromyalgia patient; patient, about 5 grams 4 times per day, first week): more energy and fewer flare ups of muscle soreness
- Symptoms on starting ribose (fibromyalgia patient; patient, about 5 grams 4 times per day, oral): immediate improvement in their symptoms
- Symptoms after discontinuing ribose (fibromyalgia patient; protocol discontinued for one week): symptoms returned to their previous level
- Expected alleviation of achiness, fatigue and/or pain at the tender points [1]: most of the patients will experience some alleviation of achiness, fatigue and/or pain at the tender points
- Fatigue, achiness, pain, energy and irritable bowel syndrome (fibromyalgia patients): noticeable improvement in the level of fatigue, achiness, pain, and energy, and alleviation of irritable bowel syndrome
- General health compared to last year, after (fibromyalgia subjects; Subject #1, 45-54, fibromyalgia for 15 years, after four weeks of ribose, at least 20 grams per day, before: much worse, after cell wraps r10-r11: somewhat better): somewhat
- Activities (12 total) limited a lot, after (fibromyalgia subjects; Subject #1, after four weeks of ribose, before: 8 of 12 limited a lot): 1 of 12 limited a
- Energy, after (fibromyalgia subjects; Subject #1, after four weeks of ribose, before: little of the time, after cell wraps r11-r12: all of the time): all of the
- Pain, after (fibromyalgia subjects; Subject #1, after four weeks of ribose, before: very severe): moderate
- General health compared to last year, after (fibromyalgia subjects; Subject #2, 50-55, fibromyalgia for several years, after four weeks of ribose, before: somewhat better): much better
- Activities (12 total) limited, after (fibromyalgia subjects; Subject #2, after four weeks of ribose, before: 2 of 12 limited a lot): 0 of 12 limited
- Energy, after (fibromyalgia subjects; Subject #2, after four weeks of ribose, before: none of the time, after cell wraps r16-r17: some of the time): some of the
- Pain, after (fibromyalgia subjects; Subject #2, after four weeks of ribose, before: severe): moderate
- Energy (fibromyalgia subjects; Subject #3): more energetic
- Energy after cessation of administration (fibromyalgia subjects; Subject #3): next-day loss of energy
- Severe pain at the tender points (fibromyalgia subjects; Subject #3): did not feel a decrease in severe pain at the tender points
- Fatigue level and achiness (fibromyalgia subjects; Subject #3, compliant with protocol, no profile): improvement in their fatigue level and less achiness
- Energy when ribose is taken on feeling exhausted (fibromyalgia subjects; Subject #4, did not follow the protocol): feel more energetic
- Energy and aching after suspending ribose administration (fibromyalgia subjects; Subjects #1 and #2, on suspending ribose): drop in energy and increase in aching within a day
- Overall relief from symptoms of fibromyalgia (fibromyalgia subjects; all subjects of the pilot study): all reported some alleviation
